Measurements reported in ChEMBL document CHEMBL1126299, “Synthesis and structure-activity relationships of cephalosporins with C-3' catechol-containing residues” (J Med Chem, 1992).
In brackets after ≈: the same amount, converted by molar mass.

Experiments:
Pseudomonas aeruginosa [1] = test: The compound was tested for minimum inhibitory concentration in Pseudomonas aeruginosa,799WT parent organism; type: functional
Citrobacter freundii [2] = test: microbe, parasite or virus in culture
Description: Minimum inhibitory concentration in Citrobacter freundii, DR 382031 constitutive depressed type 1

Citrobacter freundii [3] = test: microbe, parasite or virus in culture; remark: listed apart in the source
Description: Minimum inhibitory concentration in Citrobacter freundii, I+382010 inducible type 1 lactamase producer

Enterobacter cloacae [4] = test: microbe, parasite or virus in culture
Description: Minimum inhibitory concentration in Enterobacter cloacae, DR 401108 constitutive depressed type 1 lactamase producer

Enterobacter cloacae [5] = test: microbe, parasite or virus in culture; remark: listed apart in the source
Description: Minimum inhibitory concentration in Enterobacter cloacae, P99+ constitutive depressed type 1 lactamase producer

Enterobacter cloacae [6] = test: microbe, parasite or virus in culture; remark: listed apart in the source
Description: Minimum inhibitory concentration in Enterobacter cloacae, I+401029 inducible type 1 lactamase producer

Enterobacter cloacae [7] = test: microbe, parasite or virus in culture; remark: listed apart in the source
Description: Minimum inhibitory concentration in Enterobacter cloacae, P99- inducible type 1 lactamase producer

Pseudomonas aeruginosa [8] = test: microbe, parasite or virus in culture
Description: Minimum inhibitory concentration in Pseudomonas aeruginosa, 18S inducible type 1 lactamase producer

Pseudomonas aeruginosa [9] = test: microbe, parasite or virus in culture; remark: listed apart in the source
Description: Minimum inhibitory concentration in Pseudomonas aeruginosa, 18SH constitutive depressed type 1 lactamase producer

Providencia stuartii [10] = test: microbe, parasite or virus in culture
Description: Minimum inhibitory concentration in Pseudomonas stuartii, DR 442049 constitutive depressed type 1 lactamase producer

Providencia stuartii [11] = test: microbe, parasite or virus in culture; remark: listed apart in the source
Description: Minimum inhibitory concentration in Pseudomonas stuartii, I+442019 inducible type 1 lactamase producer

Pseudomonas aeruginosa [12] = test: microbe, parasite or virus in culture; remark: listed apart in the source
Description: Minimum inhibitory concentration in Pseudomonas aeruginosa,799/61 permeability mutant

[13] = The compound was evaluated for area under the curve in marmosets; type: ADME; conditions: callithrix, in vivo
[14] = The half life period in marmosets; type: ADME; conditions: callithrix, in vivo
Staphylococcus aureus [15] = test: The compound was tested for minimum inhibitory concentration in Staphylococcus aureus Oxford penicillin sensitive Staphylococcus aureus; type: functional
Staphylococcus aureus [16] = test: The compound was tested for minimum inhibitory concentration in Staphylococcus aureus,147N penicillin sensitive Staphylococcus aureus; type: functional
Escherichia coli [17] = test: microbe, parasite or virus in culture
Description: In vitro minimum inhibitory concentration against Escherichia coli (DC0 parent organism).

Escherichia coli [18] = test: microbe, parasite or virus in culture; remark: listed apart in the source
Description: In vitro minimum inhibitory concentration against Escherichia coli (DC2 permeability mutant).

Pseudomonas aeruginosa [19] = test: microbe, parasite or virus in culture; remark: listed apart in the source
Description: In vitro minimum inhibitory concentration against Pseudomonas aeruginosa (PU21).

Pseudomonas aeruginosa [20] = test: microbe, parasite or virus in culture; remark: listed apart in the source
Description: Minimum inhibitory concentration in Pseudomonas aeruginosa,799WT parent organism

Pseudomonas aeruginosa [21] = test: The compound was tested for minimum inhibitory concentration in Pseudomonas aeruginosa,799/61 permeability mutant; type: functional
[22] = target: Beta-lactamase TEM (Escherichia coli) (UniProt P62593); test: The dissociation constant of compound was tested for beta-Lactamase stability
Sequence of Beta-lactamase TEM (Escherichia coli) (P62593 whole entry): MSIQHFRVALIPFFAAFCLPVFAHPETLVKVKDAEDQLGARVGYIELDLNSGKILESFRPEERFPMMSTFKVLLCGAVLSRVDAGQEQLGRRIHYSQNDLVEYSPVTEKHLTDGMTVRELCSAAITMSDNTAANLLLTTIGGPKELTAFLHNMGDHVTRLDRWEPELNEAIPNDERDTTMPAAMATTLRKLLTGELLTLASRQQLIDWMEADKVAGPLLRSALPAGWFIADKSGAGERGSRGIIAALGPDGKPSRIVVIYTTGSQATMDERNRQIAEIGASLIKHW

Homo sapiens = species: Homo sapiens; test: Compound is evaluated for serum protein binding in human blood (protein binding in marmoset blood); type: functional
[23] = The compound was tested for % urinary recovery in marmosets at the dose of 3 mg/kg; type: ADME, organism-based; design: dose 3 mg/kg; conditions: callithrix, urine, read-out: Recovery
Staphylococcus aureus [24] = test: microbe, parasite or virus in culture
Staphylococcus aureus [25] = test: microbe, parasite or virus in culture; remark: listed apart in the source

SMILES | MIC (Citrobacter freundii [2]) [µg/mL] | MIC (Citrobacter freundii [3]) [µg/mL] | MIC (Enterobacter cloacae [4]) [µg/mL] | MIC (Enterobacter cloacae [5]) [µg/mL] | MIC (Enterobacter cloacae [6]) [µg/mL] | MIC (Enterobacter cloacae [7]) [µg/mL] | MIC (Pseudomonas aeruginosa [8]) [µg/mL] | MIC (Pseudomonas aeruginosa [9]) [µg/mL] | MIC (Providencia stuartii [10]) [µg/mL] | MIC (Providencia stuartii [11]) [µg/mL] | MIC (Pseudomonas aeruginosa [12]) [µg/mL] | AUC [13] [mg/h/L] | half-life [14] [h] | MIC (Staphylococcus aureus [15]) [µg/mL] | MIC (Staphylococcus aureus [16]) [µg/mL] | pKa (physchem) | MIC (Escherichia coli [17]) [µg/mL] | MIC (Escherichia coli [18]) [µg/mL] | MIC (Pseudomonas aeruginosa [19]) [µg/mL] | MIC (Pseudomonas aeruginosa [20]) [µg/mL] | further results
CC(C)(O/N=C(\C(=O)N[C@@H]1C(=O)N2C(C(=O)O)=C(CNC(=O)c3cnc4cc(O)c(O)cc4n3)CSC12)c1csc(N)n1)C(=O)O (some centres undefined) | 1 (≈ 1.49 µM) | 8 (≈ 11.9 µM) | 8 (≈ 11.9 µM) | 0.5 (≈ 0.743 µM) | 0.03 (≈ 0.0446 µM) | 0.03 (≈ 0.0446 µM) | 0.008 (≈ 0.0119 µM) | 0.008 (≈ 0.0119 µM) | 8 (≈ 11.9 µM) | 0.25 (≈ 0.372 µM) | 0.008 (≈ 0.0119 µM) |  |  |  |  |  |  |  |  |  | MIC (Pseudomonas aeruginosa [1]): 0.008 µg/mL (≈ 0.0119 µM)
CC(C)(O/N=C(\C(=O)N[C@@H]1C(=O)N2C(C(=O)O)=C(CCOC(=O)c3cc(O)c(O)c(Br)c3)CSC12)c1csc(N)n1)C(=O)O (some centres undefined) | 4 (≈ 5.6 µM) | 0.008 (≈ 0.0112 µM) | > 128 | 2 (≈ 2.8 µM) | 0.03 (≈ 0.042 µM) | 0.03 (≈ 0.042 µM) | 0.008 (≈ 0.0112 µM) | 0.03 (≈ 0.042 µM) | 2 (≈ 2.8 µM) | 0.03 (≈ 0.042 µM) | 0.008 (≈ 0.0112 µM) | 67.7 | 1.68 | 8 (≈ 11.2 µM) | 8 (≈ 11.2 µM) | 6.5 | 0.008 (≈ 0.0112 µM) | 0.008 (≈ 0.0112 µM) | 0.008 (≈ 0.0112 µM) | 0.008 (≈ 0.0112 µM) | 
CC(C)(O/N=C(\C(=O)N[C@@H]1C(=O)N2C(C(=O)O)=C(CNS(=O)(=O)c3ccc(O)c(O)c3)CSC12)c1csc(N)n1)C(=O)O (some centres undefined) | 2 (≈ 3.05 µM) | 0.015 (≈ 0.0228 µM) | 2 (≈ 3.05 µM) | 2 (≈ 3.05 µM) | 0.03 (≈ 0.0457 µM) | 0.125 (≈ 0.19 µM) | 0.015 (≈ 0.0228 µM) | 0.125 (≈ 0.19 µM) | 8 (≈ 12.2 µM) | 0.5 (≈ 0.761 µM) |  |  |  |  |  | 8 |  |  |  | 0.008 (≈ 0.0122 µM) | MIC (Pseudomonas aeruginosa [21]): 0.008 µg/mL (≈ 0.0122 µM)
CC(C)(O/N=C(\C(=O)N[C@@H]1C(=O)N2C(C(=O)O)=C(CNC(=O)c3cc(O)c4cc(O)c(O)cc4n3)CSC12)c1csc(N)n1)C(=O)O (some centres undefined) |  |  | 4 (≈ 5.82 µM) | 16 (≈ 23.3 µM) | 0.5 (≈ 0.727 µM) | 0.06 (≈ 0.0873 µM) | 0.008 (≈ 0.0116 µM) | 0.125 (≈ 0.182 µM) | 16 (≈ 23.3 µM) | 0.008 (≈ 0.0116 µM) |  |  |  |  |  |  |  |  | 2 (≈ 2.91 µM) |  | MIC (Pseudomonas aeruginosa [21]): 0.06 µg/mL (≈ 0.0873 µM); MIC (Pseudomonas aeruginosa [1]): 0.008 µg/mL (≈ 0.0116 µM)
CC(C)(O/N=C(\C(=O)N[C@@H]1C(=O)N2C(C(=O)O)=C(CCc3ccc(O)c(O)c3)CSC12)c1csc(N)n1)C(=O)O (some centres undefined) | 16 (≈ 27 µM) | 0.25 (≈ 0.423 µM) | 32 (≈ 54.1 µM) | 32 (≈ 54.1 µM) | 0.5 (≈ 0.845 µM) | 4 (≈ 6.76 µM) | 0.03 (≈ 0.0507 µM) | 0.125 (≈ 0.211 µM) | 8 (≈ 13.5 µM) | 2 (≈ 3.38 µM) | 0.125 (≈ 0.211 µM) |  |  | 8 (≈ 13.5 µM) | 16 (≈ 27 µM) |  | 0.125 (≈ 0.211 µM) | 0.03 (≈ 0.0507 µM) | 0.25 (≈ 0.423 µM) | 0.06 (≈ 0.101 µM) | 
CC(C)(O/N=C(\C(=O)N[C@@H]1C(=O)N2C(C(=O)O)=C(CNC(=O)c3ccc(O)c(O)c3)CSC12)c1csc(N)n1)C(=O)O (some centres undefined) | 16 (≈ 25.8 µM) | 0.03 (≈ 0.0483 µM) | > 128 | 16 (≈ 25.8 µM) | 0.125 (≈ 0.201 µM) | 0.125 (≈ 0.201 µM) | 0.008 (≈ 0.0129 µM) | 0.06 (≈ 0.0967 µM) | 1 (≈ 1.61 µM) | 0.25 (≈ 0.403 µM) | 0.008 (≈ 0.0129 µM) | 27.2 | 1.25 |  |  |  | 0.008 (≈ 0.0129 µM) | 0.008 (≈ 0.0129 µM) | 0.015 (≈ 0.0242 µM) | 0.008 (≈ 0.0129 µM) | pKa [22]: 8.5; Activity (Homo sapiens): 96.3%; dose excreted [23]: 44.8%; MIC (Staphylococcus aureus [24]): 16 µg/mL (≈ 25.8 µM); MIC (Staphylococcus aureus [25]): 8 µg/mL (≈ 12.9 µM)
CCO/N=C(\C(=O)N[C@@H]1C(=O)N2C(C(=O)O)=C(CNC(=O)c3cc(O)c(O)c(Br)c3)CSC12)c1csc(N)n1 (some centres undefined) | 16 (≈ 24.9 µM) | 0.008 (≈ 0.0125 µM) | 128 (≈ 200 µM) | 8 (≈ 12.5 µM) | 0.03 (≈ 0.0468 µM) | 0.015 (≈ 0.0234 µM) | 0.008 (≈ 0.0125 µM) | 4 (≈ 6.24 µM) | 4 (≈ 6.24 µM) | 0.125 (≈ 0.195 µM) | 0.008 (≈ 0.0125 µM) | 16.97 | 0.67 |  |  | 6.9 | 0.008 (≈ 0.0125 µM) | 0.008 (≈ 0.0125 µM) | 0.06 (≈ 0.0935 µM) | 0.015 (≈ 0.0234 µM) | MIC (Staphylococcus aureus [24]): 4 µg/mL (≈ 6.24 µM); MIC (Staphylococcus aureus [25]): 2 µg/mL (≈ 3.12 µM)
CC(C)(O/N=C(\C(=O)N[C@@H]1C(=O)N2C(C(=O)O)=C(CCNC(=O)CNC(=O)c3cc(O)c(O)c(Br)c3)CSC12)c1csc(N)n1)C(=O)O (some centres undefined) | 8 (≈ 10.4 µM) | 0.015 (≈ 0.0195 µM) | > 32 | 8 (≈ 10.4 µM) | 0.06 (≈ 0.0779 µM) | 0.06 (≈ 0.0779 µM) | 0.008 (≈ 0.0104 µM) | 0.5 (≈ 0.649 µM) | 4 (≈ 5.19 µM) | 0.125 (≈ 0.162 µM) | 0.008 (≈ 0.0104 µM) |  |  | 8 (≈ 10.4 µM) | 16 (≈ 20.8 µM) |  | 0.015 (≈ 0.0195 µM) | 0.015 (≈ 0.0195 µM) | 0.015 (≈ 0.0195 µM) | 0.008 (≈ 0.0104 µM) | 
CC(C)(O/N=C(\C(=O)N[C@@H]1C(=O)N2C(C(=O)O)=C(CNC(=O)c3cc(O)c(O)c(Cl)c3)CSC12)c1csc(N)n1)C(=O)O (some centres undefined) | 4 (≈ 6.11 µM) | 0.008 (≈ 0.0122 µM) | 16 (≈ 24.4 µM) | 4 (≈ 6.11 µM) | 0.06 (≈ 0.0916 µM) | 0.06 (≈ 0.0916 µM) | 0.008 (≈ 0.0122 µM) | 0.003 (≈ 0.00458 µM) | 2 (≈ 3.05 µM) | 0.03 (≈ 0.0458 µM) | 0.008 (≈ 0.0122 µM) | 638.3 | 4.57 |  |  | 7 | 0.008 (≈ 0.0122 µM) | 0.008 (≈ 0.0122 µM) | 0.008 (≈ 0.0122 µM) | 0.008 (≈ 0.0122 µM) | MIC (Staphylococcus aureus [24]): 16 µg/mL (≈ 24.4 µM); MIC (Staphylococcus aureus [25]): 16 µg/mL (≈ 24.4 µM)
CC(C)(O/N=C(\C(=O)N[C@@H]1C(=O)N2C(C(=O)O)=C(CCCC(=O)c3cc(O)c(O)c(Cl)c3)CSC12)c1csc(N)n1)C(=O)O (some centres undefined) | 2 (≈ 2.99 µM) | 0.008 (≈ 0.012 µM) | > 32 | 1 (≈ 1.5 µM) | 0.03 (≈ 0.0449 µM) | 0.03 (≈ 0.0449 µM) | 0.008 (≈ 0.012 µM) | 0.015 (≈ 0.0225 µM) | 1 (≈ 1.5 µM) | 0.03 (≈ 0.0449 µM) | 0.008 (≈ 0.012 µM) |  |  | 16 (≈ 23.9 µM) | 16 (≈ 23.9 µM) |  | 0.008 (≈ 0.012 µM) | 0.008 (≈ 0.012 µM) | 0.015 (≈ 0.0225 µM) | 0.008 (≈ 0.012 µM) | 
